Patent US9700044B2, “Symmetrical marinopyrrole derivatives as potential antibiotic agents” (priority 2013, dated 2017)
In brackets after ≈: the same amount, converted by molar mass.

What was measured:
P. aeruginosa = assay: MIC by agar dilution, P. aeruginosa; type: cell-based; conditions: Table 1; P. aeruginosa, 4 isolates; value over three Gram-negative pathogens
Excerpt: (§1) A panel of multiple resistance Gram-positive and Gram-negative pathogens listed in Tables 1 and 2 was used to evaluate the antimicrobial activity of marinopyrrole derivatives (Chart 1) with vancomycin as a positive control. Except for those marked with WHO, all pathogens were isolated between 2008 and 2010 in hospitals located in Beijing; Guangzhou; Sichuan, Shandong and Jiangsu Province. Determination of the minimum inhibitory concentration (MIC) was done by the guidelines of the Clinical and Laboratory Standards Institute (Clinical and Laboratory Standards Institute, Performance standards for antimicrobial susceptibility testing, seventeenth informational supplement. 2007, 27, M100-S17). The susceptibility tests of a bacterial strain to a marinopyrrole derivative were performed by an agar dilution method. Briefly, each sterile petri dish contained a final volume of 15 mL comprising 1 mL of a marinopyrrole derivative and 14 mL of Mueller-Hinton broth. The concentrations of a marinopyrrole derivative are 128, 64, 32, 16, 8, 4, 2, 1, 0.5, 0.25, 0.125, 0.06, 0.03, 0.015 and 0.008 μg/mL. The petri dish containing the broth with different concentration of antibiotics was first inoculated with 10^5 CFU/mL (Denley A400, United Kingdom) and the culture was then incubated with shaking at 35-37° C. for 18-20 h. The potency of the compound was determined and expressed as minimum inhibitory concentration (MIC) in μg/mL. The MIC was determined as the lowest concentration of antibiotic that inhibited visible bacterial growth.

[1] = system: Methicillin-susceptible Staphylococcus aureus (MSSA); assay: MIC by agar dilution, MSSA clinical isolates; type: cell-based; conditions: Table 1; MSSA, 10 isolates
Excerpt: as §1

[2] = system: Highly vancomycin-resistant Enterococci faecalis (VRE); assay: MIC by agar dilution, highly resistant VRE; type: cell-based; conditions: Table 1; VRE (highly vancomycin-resistant E. faecalis), 2 isolates
Excerpt: as §1

K. penumonia = assay: MIC by agar dilution, K. penumonia; type: cell-based, K. pneumonia; conditions: Table 1; K. penumonia, 4 isolates; value over three Gram-negative pathogens
Excerpt: as §1

[3] = system: Methicillin-resistant Staphylococcus epidermidis (MRSE); assay: MIC by agar dilution, MRSE clinical isolates; type: cell-based; conditions: Table 1; MRSE, 3 isolates
Excerpt: as §1

[4] = system: Methicillin-resistant Staphylococcus aureus with the mec A gene and PBP2a (WHO-31); assay: MIC by agar dilution, MRSA (WHO-31); type: cell-based; conditions: Table 1; MRSA (WHO-31), 1 isolate
Excerpt: as §1

[5] = system: Moderately vancomycin-resistant Enterococci faecium with the VanA gene (WHO-3); assay: MIC by agar dilution, VRE (WHO-3); type: cell-based; conditions: Table 1; VRE (WHO-3), 1 isolate
Excerpt: as §1

[6] = system: Methicillin-resistant Staphylococcus aureus (MRSA); assay: MIC by agar dilution, MRSA clinical isolates; type: cell-based; conditions: Table 1; MRSA, 10 isolates
Excerpt: as §1

[7] = system: Oxacillin-resistant Staphylococcus aureus (WHO-25); assay: MIC by agar dilution, ORSA (WHO-25); type: cell-based; conditions: Table 1; ORSA (WHO-25), 1 isolate
Excerpt: as §1

E. coli = assay: MIC by agar dilution, E. coli; type: cell-based; conditions: Table 1; E. coli, 4 isolates; value over three Gram-negative pathogens
Excerpt: as §1

| Structure (SMILES) | MIC (P. aeruginosa) | MIC [1] | MIC [2] | MIC (K. penumonia) | MIC [3] | MIC [4] | MIC [5] | MIC [6] | MIC [7] | MIC (E. coli) |
| --- | --- | --- | --- | --- | --- | --- | --- | --- | --- | --- |
| O=C(c1ccccc1)c1[nH]c(Cl)c(Cl)c1-n1c(C(=O)c2ccccc2)cc(Cl)c1Cl [Compound 1d] | >128 µg/mL | 2 to 8 µg/mL | >128 µg/mL | >128 µg/mL | 0.5 to 4 µg/mL | 4 µg/mL (≈ 8.37 µM) | 2 µg/mL (≈ 4.18 µM) | 4 to 8 µg/mL | 4 µg/mL (≈ 8.37 µM) | >128 µg/mL |
| COc1cccc(C(=O)c2[nH]c(Cl)c(Cl)c2-n2c(C(=O)c3cccc(OC)c3)cc(Cl)c2Cl)c1 [Compound 1e] | >128 µg/mL | >128 µg/mL | >128 µg/mL | >128 µg/mL | >128 µg/mL | >128 µg/mL | >128 µg/mL | >128 µg/mL | >128 µg/mL | >128 µg/mL |
| COc1ccc(C(=O)c2[nH]c(Cl)c(Cl)c2-n2c(C(=O)c3ccc(OC)cc3)cc(Cl)c2Cl)cc1 [Compound 1f] | >128 µg/mL | >128 µg/mL | >128 µg/mL | >128 µg/mL | >128 µg/mL | >128 µg/mL | >128 µg/mL | >128 µg/mL | >128 µg/mL | >128 µg/mL |
| O=C(c1ccccc1F)c1[nH]c(Cl)c(Cl)c1-n1c(C(=O)c2ccccc2F)cc(Cl)c1Cl [Compound 1g] | >128 µg/mL | >128 µg/mL | >128 µg/mL | >128 µg/mL | >128 µg/mL | >128 µg/mL | >128 µg/mL | >128 µg/mL | >128 µg/mL | >128 µg/mL |
| O=C(c1cccc(F)c1)c1[nH]c(Cl)c(Cl)c1-n1c(C(=O)c2cccc(F)c2)cc(Cl)c1Cl [Compound 1h] | >128 µg/mL | 4 to 16 µg/mL | >128 µg/mL | >128 µg/mL | 0.13 to 1 µg/mL | 4 µg/mL (≈ 7.78 µM) | 4 µg/mL (≈ 7.78 µM) | >64 µg/mL | 4 µg/mL (≈ 7.78 µM) | >128 µg/mL |
| O=C(c1ccc(F)cc1)c1[nH]c(Cl)c(Cl)c1-n1c(C(=O)c2ccc(F)cc2)cc(Cl)c1Cl [Compound 1i] | >128 µg/mL | 4 to 16 µg/mL | >128 µg/mL | >128 µg/mL | 0.25 to 4 µg/mL | 4 µg/mL (≈ 7.78 µM) | 4 µg/mL (≈ 7.78 µM) | 8 to 16 µg/mL | 8 µg/mL (≈ 15.6 µM) | >128 µg/mL |
| O=C(c1ccccc1C(F)(F)F)c1[nH]c(Cl)c(Cl)c1-n1c(C(=O)c2ccccc2C(F)(F)F)cc(Cl)c1Cl [Compound 1j] | >128 µg/mL | >128 µg/mL | >128 µg/mL | >128 µg/mL | >128 µg/mL | >128 µg/mL | >128 µg/mL | >128 µg/mL | >128 µg/mL | >128 µg/mL |
| O=C(c1ccc(C(F)(F)F)cc1)c1[nH]c(Cl)c(Cl)c1-n1c(C(=O)c2ccc(C(F)(F)F)cc2)cc(Cl)c1Cl [Compound 1k] | >128 µg/mL | 8 to 32 µg/mL | >128 µg/mL | >128 µg/mL | 0.03 to 4 µg/mL | 8 µg/mL (≈ 13 µM) | 8 µg/mL (≈ 13 µM) | 32 to 64 µg/mL | 8 µg/mL (≈ 13 µM) | >128 µg/mL |
| COc1cc(O)c(C(=O)c2[nH]c(Cl)c(Cl)c2-n2c(C(=O)c3cc(Cl)c(OC)cc3O)cc(Cl)c2Cl)cc1Cl [Compound 1m] | >128 µg/mL | 2 to 8 µg/mL | >128 µg/mL | >128 µg/mL | 0.25 to 4 µg/mL | 4 µg/mL (≈ 6.26 µM) | 0.5 µg/mL (≈ 0.782 µM) | 2 to 8 µg/mL | 4 µg/mL (≈ 6.26 µM) | >128 µg/mL |
